Numbered stars: 1 amine (or outer) side, 2 acyl side, 3 side chain; on linkers, the order of the positions; unused ones are H or OH. Bridge positions count the residues as written; N and C are the ends. Square brackets hold non-standard residues; d marks the D form. Peptide text beside a SMILES is read from it. Nle(6-ylidene) = O=C([C@H](CCCC=[*:3])N[*:1])[*:2]; tBuAla = CC(C)(C)C[C@H](N)C(=O)O; Cha = N[C@@H](CC1CCCCC1)C(=O)O; Chg = N[C@H](C(=O)O)C1CCCCC1; R5 = C=CCCC[C@@](C)(N)C(=O)O; S5 = C=CCCC[C@](C)(N)C(=O)O
How the values were obtained:
[1] = CD spectroscopy, percentage of helicity; assay type: physicochemical; details: CD at 222 nm, 10 mM phosphate buffer pH 7.5, 50 μM peptide, 25° C.
Description: The secondary structure of the peptides was then characterized by circular dichroism (DC) as described below.
The circular dichroism spectra were acquired on a Jasco J-810 and on a Chirascan spectropolarimeter. The samples were prepared in 10 mM phosphate buffer, pH 7.5, at a peptide concentration of 50 μM. Data were recorded at 25° C. by stepscan from 180 nm to 260 nm in a 0.1 cm pathlength quartz cell using 0.2 nm wavelength increments, 1 nm bandwidth and a response time of 0.5 sec. Each spectrum was an average of three measurements and was subtracted from buffer baseline. The data were converted to per residue molar ellipticity units [θ] (deg·cm2·dmol−1·residue−1) and smoothed using the Igor software. The percentage of helicity was calculated as it follows:
[formula] whereby CD222=molar ellipticity at 222 nm in [mdeg], N=number of amino acids in the peptide and C=peptide molar concentration [mol/l].

circular dichroism = details: 10 mM phosphate; pH 7.5; 25 °C; 50 uM
RSV-mCherry = assay type: cell-based, HRSV
Description: The inhibitory activity of the peptides of the invention was assessed in HEp-2 cells as described below:
A mCherry-expressing virus recently developed (Rameix-Welti et al., 2014, Nat. Commun., 5:5104) was used to avoid the cumbersome manipulations required with the GFP-expressing virus.
HEp-2 cells were seeded at 5×10^4 cells per well in 96 wells plate the day before the infection. Peptides were 2-fold serially diluted in DMSO (11 dilutions), then further diluted in MEM medium and pre-incubated for 15-20 minutes with 0.2 MOI of RSV-mCherry (Rameix-Welti et al., 2014, supra). Following the washing of Hep-2 cells with MEM without phenol red medium, the cells were incubated with the virus/peptide mixtures for a period of 1 h30-2 h. The cells were washed and further incubated in MEM media containing fetal bovine serum and the same concentration of peptide that was used during the infection step. Plates were incubated 48 h at 37° C. and the mCherry fluorescence was measured using a spectrofluorometer (Tecan infinite M200PRO) with excitation and emission wavelengths of 580 and 620 nm, respectively (expressed in relative fluorescence units RFU). Non-infected HEp-2 cells were used as standards for fluorescence background levels. Each experiment was performed in duplicate and repeated at least twice.

Compound | % helicity [1] [%] | helicity (circular dichroism) [%] | EC50 (RSV-mCherry; HEp-2 cells, 0.2 MOI RSV-mCherry, 48 h) [µM] | inhibitory activity in HEp-2 cells (RSV-mCherry; RSV-mCherry)
CC[C@H](C)[C@@H]1NC(=O)[C@H](Cc2ccccc2)NC(=O)[C@@](C)(NC(=O)[C@H](CC(C)C)NC(=O)[C@H](CO)NC(=O)[C@]2(C)CCCC=CCCC[C@@](C)(NC(=O)[C@H](CCC(=O)O)NC(C)=O)C(=O)N[C@@H]([C@@H](C)CC)C(=O)N[C@@H](CC(N)=O)C(=O)N2)CCCC=CCCC[C@@](C)(C(=O)N[C@@H](CO)C(=O)N[C@@H](CC(=O)O)C(=O)N[C@@H](CCC(=O)O)C(=O)N[C@@H](CC(C)(C)C)C(=O)N[C@@H](CC(C)C)C(=O)N[C@@H](Cc2c[nH]cn2)C(=O)N[C@@H](CC(N)=O)C(=O)N[C@H](C(N)=O)C(C)C)NC(=O)[C@H](CCCNC(=N)N)NC1=O [Peptide 4ca-var4, E Xaa2 IN Xaa5 SL Xaa8 FIR Xaa12 SDE Xaa16LHNV] (Ac-E[R5]IN[S5]SL[S5]FIR[S5]SDE[tBuAla]LHNV-NH2; staple 2-5, 8-12) | 98.4 | 98.4 | 0.2 ± 0.05 | –
CC[C@H](C)[C@@H]1NC(=O)[C@H](Cc2ccccc2)NC(=O)[C@@](C)(NC(=O)[C@H](CC(C)C)NC(=O)[C@H](CO)NC(=O)[C@]2(C)CCCC=CCCC[C@@](C)(NC(=O)[C@H](CCC(=O)O)NC(C)=O)C(=O)N[C@@H]([C@@H](C)CC)C(=O)N[C@@H](CC(N)=O)C(=O)N2)CCCC=CCCC[C@@](C)(C(=O)N[C@@H](CO)C(=O)N[C@@H](CC(=O)O)C(=O)N[C@@H](CCC(=O)O)C(=O)N[C@@H](CC2CCCCC2)C(=O)N[C@@H](CC(C)C)C(=O)N[C@@H](Cc2c[nH]cn2)C(=O)N[C@@H](CC(N)=O)C(=O)N[C@H](C(N)=O)C(C)C)NC(=O)[C@H](CCCNC(=N)N)NC1=O [Peptide 4ca-var7, E Xaa2 IN Xaa5 SL Xaa8 FIR Xaa12 SDE Xaa16LHNV] (Ac-E[R5]IN[S5]SL[S5]FIR[S5]SDE[Cha]LHNV-NH2; staple 2-5, 8-12) | 91.4 | 91.4 | – | –
CC[C@H](C)[C@@H]1NC(=O)[C@H](Cc2ccccc2)NC(=O)[C@@](C)(NC(=O)[C@H](CC(C)(C)C)NC(=O)[C@H](CO)NC(=O)[C@]2(C)CCCC=CCCC[C@@](C)(NC(=O)[C@H](CCC(=O)O)NC(C)=O)C(=O)N[C@@H]([C@@H](C)CC)C(=O)N[C@@H](CC(N)=O)C(=O)N2)CCCC=CCCC[C@@](C)(C(=O)N[C@@H](CO)C(=O)N[C@@H](CC(=O)O)C(=O)N[C@@H](CCC(=O)O)C(=O)N[C@@H](CC(C)C)C(=O)N[C@@H](CC(C)C)C(=O)N[C@@H](Cc2c[nH]cn2)C(=O)N[C@@H](CC(N)=O)C(=O)N[C@H](C(N)=O)C(C)C)NC(=O)[C@H](CCCNC(=N)N)NC1=O [Peptide 4ca-var1] (Ac-E[R5]IN[S5]S[tBuAla][S5]FIR[S5]SDELLHNV-NH2; staple 2-5, 8-12) | 89.3 | 89.3 | – | –
CC[C@H](C)[C@@H]1NC(=O)[C@H](Cc2ccccc2)NC(=O)[C@@](C)(NC(=O)[C@@H](NC(=O)[C@H](CO)NC(=O)[C@]2(C)CCCC=CCCC[C@@](C)(NC(=O)[C@H](CCC(=O)O)NC(C)=O)C(=O)N[C@@H]([C@@H](C)CC)C(=O)N[C@@H](CC(N)=O)C(=O)N2)C2CCCCC2)CCCC=CCCC[C@@](C)(C(=O)N[C@@H](CO)C(=O)N[C@@H](CC(=O)O)C(=O)N[C@@H](CCC(=O)O)C(=O)N[C@@H](CC(C)C)C(=O)N[C@@H](CC(C)C)C(=O)N[C@@H](Cc2c[nH]cn2)C(=O)N[C@@H](CC(N)=O)C(=O)N[C@H](C(N)=O)C(C)C)NC(=O)[C@H](CCCNC(=N)N)NC1=O [Peptide 4ca-var3] (Ac-E[R5]IN[S5]S[Chg][S5]FIR[S5]SDELLHNV-NH2; staple 2-5, 8-12) | 91.4 | 91.4 | – | –
CC[C@H](C)[C@@H]1NC(=O)[C@H](Cc2ccccc2)NC(=O)[C@@](C)(NC(=O)[C@H](CC(C)C)NC(=O)[C@H](CO)NC(=O)[C@]2(C)CCCC=CCCC[C@@](C)(NC(=O)[C@H](CCC(=O)O)NC(C)=O)C(=O)N[C@@H]([C@@H](C)CC)C(=O)N[C@@H](CC(N)=O)C(=O)N2)CCCC=CCCC[C@@](C)(C(=O)N[C@@H](CO)C(=O)N[C@@H](CC(=O)O)C(=O)N[C@@H](CCC(=O)O)C(=O)N[C@@H](CC(C)(C)C)C(=O)N[C@@H](CC(C)C)C(=O)N[C@@H](Cc2c[nH]cn2)C(N)=O)NC(=O)[C@H](CCCNC(=N)N)NC1=O [Peptide 4ca-var8, E Xaa2 IN Xaa5 SL Xaa8 FIR Xaa12 SDE Xaa16LH] (Ac-E[R5]IN[S5]SL[S5]FIR[S5]SDE[tBuAla]LH-NH2; staple 2-5, 8-12) | 75.8 | 75.8 | – | –
CC[C@H](C)[C@H](NC(=O)[C@H](Cc1ccccc1)NC(=O)[C@H](C)NC(=O)[C@H](CC(C)C)NC(=O)[C@H](CO)NC(=O)[C@H](CCC(N)=O)NC(=O)[C@H](CCC(=O)O)NC(C)=O)C(=O)N[C@@H](CCCNC(=N)N)C(=O)N[C@@H](CCCCN)C(=O)N[C@@H](CO)C(=O)N[C@@H](CC(=O)O)C(=O)N[C@@]1(C)CCCC=CCCC[C@@](C)(C(=O)N[C@H](C(N)=O)C(C)C)NC(=O)[C@H](Cc2c[nH]cn2)NC(=O)[C@H](CC(C)C)NC(=O)[C@H](CC(C)C)NC1=O [Peptide 3c, reference compound] (Ac-EQSLAFIRKSD[S5]LLH[S5]V-NH2; staple 12-16) | – | – | – | inactive
CC[C@H](C)[C@@H]1NC(=O)[C@H](Cc2ccccc2)NC(=O)[C@@H](NC(=O)[C@H](CC(C)C)NC(=O)[C@H](CO)NC(=O)[C@@H]2CCCC=CCCC[C@@](C)(NC(=O)[C@H](CCC(=O)O)NC(C)=O)C(=O)N[C@@H]([C@@H](C)CC)C(=O)N[C@@H](CC(N)=O)C(=O)N2)CCCC=CCCC[C@@H](C(=O)N[C@@H](CO)C(=O)N[C@@H](CC(=O)O)C(=O)N[C@@H](CCC(=O)O)C(=O)N[C@@H](CC(C)C)C(=O)N[C@@H](CC(C)C)C(=O)N[C@@H](Cc2c[nH]cn2)C(=O)N[C@@H](CC(N)=O)C(=O)N[C@H](C(N)=O)C(C)C)NC(=O)[C@H](CCCNC(=N)N)NC1=O [Peptide 4ca2] (Ac-E[R5]IN[Nle(6-ylidene)]SL[Nle(6-ylidene)]FIR[Nle(6-ylidene)]SDELLHNV-NH2; staple 2-5, 8-12) | 58.1 | 58.1 | – | –

Reference: patent publication US11299518B2, “Fusion respiratory syncytial virus inhibitors and use thereof” (priority 2016, dated 2022)
